The source of these data is US10556907B2 (AbbVie Inc., priority 2015, dated 2020).

Structures can show the parent of a compound that is named as a salt. A value given as a limit tells only on which side of the number the result lay.

Assay type in all cases: cell-based
Assay [1] deals with T1, human EDG3 (S1PR3) receptor (Homo sapiens, UniProt Q99500).
T1 construct: expressed in transfected cells; host or cells: CHO (cell pool CHO-A2-S1P3 Mix)
Kind of assay: Method 2: Aequorin assay, cell pool CHO-A2-S1P3 Mix. The note with it: (2): determined with method 2. How it is done: (§1) Agonistic activity was measured using two different methods, described below.
(§2) Genetically Engineered Cells
(§3) Cell clone CHO-A21-Edg1 #17 carries the transgenes human EDG1 (S1PR1) receptor (Accession number NP_001391.2), mitochondrially targeted Aequorin (active part corresponds to accession number 1SL8_A) and chimaeric Gaqi5=Gaq modified with the 5 C-terminal amino-acids replaced with those of the Gai protein (DCGLF). CHO-A2-S1P3 Mix is a cell pool ectopically expressing human EDG3 (S1PR3) receptor (Accession number NP_005217.2) mitochondrially targeted Aequorin (active part has a sequence similar to accession number AY601106.1) and GNA16 (Accession number NP_002059.3). Cell clone CHO-A21-EDG8 #12 carries the transgenes human EDG8 (S1PR5) receptor (Accession number NP_110387.1), mitochondrially expressed Aequorin (active part corresponds to accession number 1SL8_A) and chimaeric Gaqi5 (Gaq modified to present the 5 last amino-acids of the Gai protein “DCGLF”; see above). Cells are grown to mid-log phase in culture medium (HAM's F12, 10% FBS, 100 IU/mL penicillin, 100 μg/mL streptomycin, 250 μg/mL Zeocin, 400 μg/mL G418). 18 hours prior to frozen cells preparation, the medium is changed to remove the antibiotics.
(§4) 18 hours prior to the test, vials of frozen cells are quickly thawed in a 37° C. water bath, cells are recovered by centrifugation and resuspended in assay buffer (DMEM/HAM's F12 with HEPES, without phenol red+0.1% fatty acid-free BSA). Cells are gently agitated in suspension overnight at RT in presence of 5 μM of Coelenterazine h (Molecular Probes). On the day of the test, cells are diluted to their final working concentrations in assay buffer and agitated in suspension for 1 h at RT. Cells are then placed in the luminescence reader (Hamamatsu Functional Drug Screening System 6000, FDSS6000). During cells incubation, compounds are prepared in 100% DMSO, and subsequently diluted in assay buffer. Compounds are then dispensed in the assay plate (black, clear-bottom, 384-well plate). After binding of agonists to the human S1P receptor the intracellular calcium concentration increases and binding of calcium to the Aequorin/Coelenterazine complex leads to an oxidation reaction of coelenterazine, which results in the production of […], coelenteramide, CO2 and light (Dmax 469 nm). The luminescent response is dependent on the agonist concentration. For agonist testing, 30 μL of cell suspension are injected on 30 μL of test compound or reference agonist in the assay plate. The resulting emission of light is recorded for 90 seconds using the FDSS6000. Dose response curves with the reference compounds are performed before testing the compounds. S1P is the reference agonist and JTE-013 the reference antagonist for S1P2. […]
(§5) Luminescence data are integrated over the reading interval for agonist and antagonist modes. To standardize the emission of recorded light (determination of the “100% signal”) across plates and across different experiments, some of the wells contain 100 μM digitonin or a saturating concentration of ATP (20 μM). Plates also contain the reference agonist at a concentration equivalent to the EC80 obtained during the test validation and the EC100. Dose-response data from test compounds were analyzed with XLfit (IDBS) software using nonlinear regression applied to a sigmoidal dose-response model and the following equation: • XL Fit fit Model 203: 4 Parameter Logistic Model • A: Bottom • B: TOP • C: LogEC50 • D: Hill fit=(A+((B−A)/(1+(((10^C)/x)^D)))) inv=((10^C)/((((B−A)/(y−A))−1)^(1/D))) res=(y−fit)

Assay [2] has as its target T2, human EDG8 (S1PR5) receptor (Homo sapiens, UniProt Q9H228).
T2 construct: expressed in transfected cells; host or cells: CHO (clone CHO-A21-EDG8 #12)
The assay can be described thus: Method 2: Aequorin assay, cell clone CHO-A21-EDG8 #12. As to conditions: agonist potency, determined with method 2 (symbols E-G); read-out: S1P5 EC50 range. How it is done: as §1, §2, §3, §4, §5

Assay [3] deals with T3, human EDG1 (S1PR1) receptor (Homo sapiens, UniProt P21453).
T3 construct: expressed in transfected cells; host or cells: CHO (clone CHO-A21-Edg1 #17)
T3 sequence (P21453 whole entry): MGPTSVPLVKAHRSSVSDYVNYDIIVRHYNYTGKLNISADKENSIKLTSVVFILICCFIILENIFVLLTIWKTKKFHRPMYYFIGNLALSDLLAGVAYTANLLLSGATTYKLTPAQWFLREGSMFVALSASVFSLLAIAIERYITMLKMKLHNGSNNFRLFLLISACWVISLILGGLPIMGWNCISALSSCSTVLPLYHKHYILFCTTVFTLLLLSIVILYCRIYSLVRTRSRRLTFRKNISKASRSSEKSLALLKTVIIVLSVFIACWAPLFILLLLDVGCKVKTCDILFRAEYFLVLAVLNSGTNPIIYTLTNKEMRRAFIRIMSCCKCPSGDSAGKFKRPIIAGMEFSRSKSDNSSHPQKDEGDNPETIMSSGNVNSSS
The assay can be described thus: Method 2: Aequorin assay, cell clone CHO-A21-Edg1 #17. The note with it: (2): determined with method 2; read-out: S1P1 EC50. The method, then:
as §1, §2, §3, §4, §5

The target in another assay is T4, human S1PR4 receptor (Homo sapiens, UniProt O95977).
T4 construct: host or cells: CHO-K1
T4 sequence (O95977 1-384): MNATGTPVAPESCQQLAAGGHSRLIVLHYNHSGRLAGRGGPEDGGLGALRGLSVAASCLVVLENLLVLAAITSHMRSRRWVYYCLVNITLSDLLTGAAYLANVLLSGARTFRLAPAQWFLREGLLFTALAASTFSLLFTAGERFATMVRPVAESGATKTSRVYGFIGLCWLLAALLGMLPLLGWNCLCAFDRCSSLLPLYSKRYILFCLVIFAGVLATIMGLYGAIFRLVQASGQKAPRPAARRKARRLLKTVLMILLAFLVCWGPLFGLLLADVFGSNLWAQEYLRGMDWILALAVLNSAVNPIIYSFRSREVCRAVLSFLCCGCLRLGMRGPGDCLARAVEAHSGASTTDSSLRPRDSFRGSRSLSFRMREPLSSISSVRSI
Kind of assay: Method 1: intracellular Ca2+ release (FLIPR, Calcium 5) in recombinant CHO-K1 cells. The note with it: (1): determined with method 1; read-out: S1P4 EC50. In short, it runs like this:
(§6)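 Read-out: FLIPR Tetra fluorescence of Calcium 5-loaded CHO-K1 cells (receptor + aequorin + Gq/i5) after agonist addition at RT. Values are EC50s from nonlinear fits normalized to the phospho-fingolimod reference curve. Buffer HBSS with Ca2+/Mg2+, Hepes, probenecid, 0.1% BSA, pH 7.4.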

The target of the next assay is T5, human S1PR5 receptor (Homo sapiens, UniProt Q9H228).
T5 construct: host or cells: CHO-K1
T5 sequence (Q9H228 whole entry): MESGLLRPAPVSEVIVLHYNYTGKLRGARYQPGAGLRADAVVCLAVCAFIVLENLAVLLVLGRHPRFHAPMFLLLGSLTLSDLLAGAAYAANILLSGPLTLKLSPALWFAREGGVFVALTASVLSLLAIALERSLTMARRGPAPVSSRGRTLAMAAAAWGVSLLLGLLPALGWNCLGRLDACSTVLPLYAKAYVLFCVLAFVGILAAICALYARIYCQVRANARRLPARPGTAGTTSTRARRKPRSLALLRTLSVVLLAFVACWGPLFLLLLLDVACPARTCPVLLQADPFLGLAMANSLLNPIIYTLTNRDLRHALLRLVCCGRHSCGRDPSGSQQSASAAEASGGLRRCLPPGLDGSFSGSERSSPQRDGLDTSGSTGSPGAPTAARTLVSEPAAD
The assay is described as above. The note with it: agonist potency, determined with method 1 (symbols A-D); read-out: S1P5 EC50 range. The procedure, abridged:
as §6

For the next assay, the target named is T6, human S1PR1 receptor (Homo sapiens, UniProt P21453).
T6 construct: host or cells: CHO-K1
T6 sequence (P21453 whole entry): as the sequence (P21453 whole entry) above
The assay is described as above. The note with it: (1): determined with method 1; read-out: S1P1 EC50. In short, it runs like this:
as §6

Another assay concerns the target T7, human S1PR3 receptor (Homo sapiens, UniProt Q99500).
T7 construct: host or cells: CHO-K1
Described as above. As to conditions: (1): determined with method 1; read-out: S1P3 EC50. The procedure, abridged:
as §6

T2 sequence (Q9H228 whole entry): as the sequence (Q9H228 whole entry) above
T7 sequence (Q99500 whole entry): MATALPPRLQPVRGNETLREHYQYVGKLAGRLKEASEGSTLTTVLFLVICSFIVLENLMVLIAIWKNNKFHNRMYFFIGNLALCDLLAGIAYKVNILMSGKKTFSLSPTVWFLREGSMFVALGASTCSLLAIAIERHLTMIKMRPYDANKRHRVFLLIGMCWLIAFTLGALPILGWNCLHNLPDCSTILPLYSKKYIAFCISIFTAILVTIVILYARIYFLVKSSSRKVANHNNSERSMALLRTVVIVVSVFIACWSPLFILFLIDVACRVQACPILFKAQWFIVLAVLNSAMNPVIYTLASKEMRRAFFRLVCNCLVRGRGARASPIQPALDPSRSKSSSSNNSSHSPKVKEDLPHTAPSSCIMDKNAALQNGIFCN
T1 sequence (Q99500 whole entry): as above

For `CC(CC(=O)O)N1CCc2nc(-c3ccc(OCc4ccccc4)cc3)ccc2C1` (stereo not shown) [Compound 113, 3-(2-(4-(benzyloxy)phenyl)-7,8-dihydro-1,6-naphthyridin-6(5H)-yl)butanoic acid], the EC50 in assay [1] is greater than 1 µM; in assay [2], 1 to 10 µM; in assay [3] it was greater than 1 µM.
In the case of `CC(CC(=O)O)N1Cc2ccc(-c3ccc(OCc4ccccc4)cc3)nc2C1` (stereo not shown) [Compound 200, 3-(2-(4-(benzyloxy)phenyl)-5H-pyrrolo[3,4-b]pyridin-6(7H)-yl)butanoic acid], the EC50 was greater than 1 µM in assay [1], 1 to 10 µM in assay [2] and greater than 1 µM in assay [3].
As to `O=C(O)CCN1CCc2nc(-c3ccc(OCc4ccccc4)cc3)ccc2C1` [Compound 129, 3-(2-(4-(benzyloxy)phenyl)-7,8-dihydro-1,6-naphthyridin-6(5H)-yl)propanoic acid], the values for the EC50 in assay [1], in assay [2] and in assay [3] were greater than 1 µM, 0.1 to 1 µM and greater than 1 µM, respectively.
For the molecule `O=C(O)CCN1CCc2nc(-c3ccc(OCc4cccc(F)c4F)cc3)ccc2C1` [Compound 131, 3-(2-(4-((2,3-difluorobenzyl)oxy)phenyl)-7,8-dihydro-1,6-naphthyridin-6(5H)-yl)propanoic acid], the EC50 is greater than 1 µM in assay [1], less than 0.1 µM in assay [2] and greater than 1 µM in assay [3].
For `O=C(O)CCN1CCc2nc(-c3ccc(OCc4c(Cl)cccc4Cl)cc3)ncc2C1` [Compound 70, 3-(2-(4-((2,6-dichlorobenzyl)oxy)phenyl)-7,8-dihydropyrido[4,3-d]pyrimidin-6(5H)-yl)propanoic acid], the figures for the EC50 in assay [1], in assay [2] and in assay [3] were greater than 1 µM, 0.1 to 1 µM and greater than 1 µM, respectively.
`CC(CC(=O)O)CN1CCc2nc(-c3ccc(OCc4c(F)cccc4F)cc3F)ncc2C1` (stereo not shown) [Compound 240, 4-[2-[4-[(2,6-difluorophenyl)methoxy]-2-fluoro-phenyl]-7,8-dihydro-5H-pyrido[4,3-d]pyrimidin-6-yl]-3-methyl-butanoic acid 2,2,2-trifluoroacetic acid salt]: the EC50 was greater than 1 µM at human S1PR4 receptor, less than 0.01 µM on human S1PR5 receptor, greater than 1 µM on human S1PR1 receptor and greater than 1 µM on human S1PR3 receptor.
Turning to `CC(C)(CC(=O)O)CN1CCc2nc(-c3ccc(OCc4ccc(Cl)cc4)cc3)ncc2C1` [Compound 210, 4-(2-(4-((4-chlorobenzyl)oxy)phenyl)-7,8-dihydropyrido[4,3-d]pyrimidin-6(5H)-yl)-3,3-dimethylbutanoic acid], the EC50 at human S1PR4 receptor is greater than 1 µM; on human S1PR5 receptor, 1 to 10 µM; on human S1PR1 receptor, greater than 1 µM; on human S1PR3 receptor, greater than 1 µM.
For the molecule `O=C(O)CCN1CCc2nc(-c3ccc(OCc4ccccc4)cc3)cnc2C1` [Compound 177, 3-(2-(4-(benzyloxy)phenyl)-7,8-dihydropyrido[3,4-b]pyrazin-6(5H)-yl)propanoic acid], the EC50 is greater than 1 µM at human S1PR4 receptor, less than 0.01 µM on human S1PR5 receptor, greater than 1 µM at human S1PR1 receptor and greater than 1 µM at human S1PR3 receptor.
As to `Cc1cc(-c2ncc3c(n2)CCN(CC(C)CC(=O)O)C3)ccc1OCc1ccc(Cl)cc1` (stereo not shown) [Compound 258, 4-(2-(4-((4-chlorobenzyl)oxy)-3-methylphenyl)-7,8-dihydropyrido[4,3-d]pyrimidin-6(5H)-yl)-3-methylbutanoic acid], the EC50 on human S1PR4 receptor was greater than 1 µM; at human S1PR5 receptor, 0.01 to 0.1 µM; at human S1PR1 receptor, greater than 1 µM; on human S1PR3 receptor, greater than 1 µM.
As to `O=C(O)CC1(CN2CCc3nc(-c4ccc(OCc5cccc(Cl)c5)cc4)ncc3C2)CC1` [Compound 285, 2-((4(2-(4-((3-chlorobenzyl)oxy)phenyl)-7,8-dihydropyrido[4,3-d]pyrimidin-6(5H)-yl)methyl)cyclopropyl)acetic acid], the EC50 at human S1PR4 receptor is less than 1 µM; on human S1PR5 receptor, 0.1 to 1 µM; at human S1PR1 receptor, greater than 1 µM; on human S1PR3 receptor it was greater than 1 µM.
In the case of `Cc1ccc(COc2ccc(-c3ncc4c(n3)CCN(CC(C)CC(=O)O)C4)c(F)c2)cc1C(F)(F)F` (stereo not shown) [Compound 279, 4-[2-[2-fluoro-4-[[4-methyl-3-(trifluoromethyl)phenyl]methoxy]phenyl]-7,8-dihydro-5H-pyrido[4,3-d]pyrimidin-6-yl]-3-methyl-butanoic acid 2,2,2-trifluoroacetic acid salt], the EC50 on human S1PR4 receptor is greater than 1 µM; on human S1PR5 receptor, 0.01 to 0.1 µM; at human S1PR1 receptor it was greater than 1 µM; on human S1PR3 receptor it was greater than 1 µM.
In the case of `O=C(O)CCN1CCc2nc(-c3ccc(OCc4cccc(F)c4)cc3)c(F)cc2C1` [Compound 193, 3-(2-(4-((3-fluorobenzyl)oxy)phenyl)-3-fluoro-7,8-dihydro-1,6-naphthyridin-6(5H)-yl)propanoic acid], the EC50 on human S1PR4 receptor was greater than 1 µM; at human S1PR5 receptor it was less than 0.01 µM; on human S1PR1 receptor, greater than 1 µM; on human S1PR3 receptor it was greater than 1 µM.
For the molecule `O=C(O)C1CC(N2CCc3nc(C#Cc4cccc(Cl)c4)ncc3C2)C1` (stereo not shown) [Compound 62, 3-(2-((3-chlorophenyl)ethynyl)-7,8-dihydropyrido[4,3-d]pyrimidin-6(5H)-yl)cyclobutanecarboxylic acid], the EC50 was greater than 1 µM at human S1PR4 receptor, 1 to 10 µM at human S1PR5 receptor, greater than 1 µM on human S1PR1 receptor and greater than 1 µM at human S1PR3 receptor.
As to `O=C(O)C1(CN2CCc3nc(-c4ccc(Cc5ccccc5)cc4)ncc3C2)CC1` [Compound 218, 1-((2-(4-benzylphenyl)-7,8-dihydropyrido[4,3-d]pyrimidin-6(5H)-yl)methyl)cyclopropanecarboxylic acid], the EC50 at human S1PR4 receptor was greater than 1 µM; at human S1PR5 receptor, 1 to 10 µM; at human S1PR1 receptor, greater than 1 µM; on human S1PR3 receptor, greater than 1 µM.
Take `O=C(O)CCN1CCc2nc(-c3ccc(OCc4ccccc4OC(F)(F)F)cc3)ccc2C1` [Compound 155, 3-(2-(4-((2-trifluoromethoxybenzyl)oxy)phenyl)-7,8-dihydro-1,6-naphthyridin-6(5H)-yl)propanoic acid]: the concentration giving a half-maximal response (EC50) at human S1PR4 receptor was greater than 1 µM; at human S1PR5 receptor, less than 0.01 µM; at human S1PR1 receptor, greater than 1 µM; at human S1PR3 receptor, greater than 1 µM.
